Data published in ChEMBL document CHEMBL4402538, “Mycobacterial tryptophan biosynthesis: A promising target for tuberculosis drug development?” (Bioorg Med Chem Lett, 2019).
Converted amounts (≈) assume the structure as drawn.

Tests used:
[1] = Inhibition of Mycobacterium tuberculosis Anthranilate phosphoribosyltransferase expressed in Escherichia coli BL21(DE3) pRIL cells harboring PRAI-InGPS preincubated for 10 mins followed by anthranilate addition in presence of PRPP
[2] = test system: Mycobacterium tuberculosis; experiment: Inhibition of Mycobacterium tuberculosis Anthranilate phosphoribosyltransferase expressed in Escherichia coli BL21(DE3) pRIL cells harboring PRAI-InGPS assessed as residual activity preincubated for 10 mins followed by anthranilate addition in presence of PRPP relative to control
[3] = test system: Mycobacterium tuberculosis; experiment: Antimycobacterial activity against streptomycin resistant Mycobacterium tuberculosis 98-01436 incubated for 2 weeks; format: functional; conditions: 98-01436, 336 h
[4] = test system: Mycobacterium tuberculosis; experiment: Antimycobacterial activity against ofloxacin/isoniazid resistant Mycobacterium tuberculosis CI-14 incubated for 2 weeks; format: functional; conditions: CI-14, 336 h
[5] = test system: Mycobacterium tuberculosis; experiment: Antimycobacterial activity against isoniazid resistant Mycobacterium tuberculosis BAA-812 incubated for 2 weeks; format: functional; conditions: BAA-812, 336 h
[6] = test system: Mycobacterium tuberculosis; experiment: Antimycobacterial activity against ofloxacin resistant Mycobacterium tuberculosis CI-10 incubated for 2 weeks; format: functional; conditions: CI-10, 336 h
[7] = test system: Mycobacterium tuberculosis; experiment: Antimycobacterial activity against isoniazid/streptomycin resistant Mycobacterium tuberculosis 01-R0348 incubated for 2 weeks; format: functional; conditions: 01-R0348, 336 h

## O=C(O)c1ccccc1Nc1cccc(Nc2ccccc2C(=O)O)c1C(=O)O
[1]
  IC50: 2.2 µM
[2]
  Activity: 6%

## Cc1cccc(C(=O)O)c1Nc1cc(Br)ccc1C(=O)O
[1]
  IC50: 3.3 µM

## N#C[C@@H]1N[C@@H](CO)[C@H]1c1ccc(-c2ccccc2F)cc1
[3]
  MIC90: 1.6 µM (≈ 0.452 µg/mL)
[4]
  MIC90: 3 µM (≈ 0.847 µg/mL)
[5]
  MIC90: 3 µM (≈ 0.847 µg/mL)
[6]
  MIC90: 1.6 µM (≈ 0.452 µg/mL)
[7]
  MIC90: 1.6 µM (≈ 0.452 µg/mL)

## Cc1cccc(C(=O)O)c1Nc1cc(Cl)ccc1C(=O)O
[1]
  IC50: 5.8 µM

## Cc1ccc(C(=O)O)c(Nc2c(C)cccc2C(=O)O)c1
[1]
  IC50: 6.8 µM
